Measurements from patent US6875760B2 (Novo Nordisk A/S, priority 1999, dated 2005).
pIC50: −log10 of the molar value. Like-named read-outs stand apart in the source and are kept apart here.

Biological target: T1, human glucagon receptor (Homo sapiens, UniProt P47871)
T1 construct: expressed in transfected cells; host or cells: BHK (baby hamster kidney) cells
Experiment: Glucagon Binding Assay (III)
Details: BHK cell membranes, WGA SPA beads, 125I-glucagon; for pIC50: read-out: Glu Bd Assay (III) IC50
Method in brief: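 Membranes from BHK cells transfected with the human receptor, prepared at 4 °C, were used in a WGA-bead scintillation proximity binding format. Plates were shaken for 4 hours, left to settle 8–48 hours and then counted. Non-specific binding was defined with 500 nM glucagon.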

T1 sequence (P47871 26-477): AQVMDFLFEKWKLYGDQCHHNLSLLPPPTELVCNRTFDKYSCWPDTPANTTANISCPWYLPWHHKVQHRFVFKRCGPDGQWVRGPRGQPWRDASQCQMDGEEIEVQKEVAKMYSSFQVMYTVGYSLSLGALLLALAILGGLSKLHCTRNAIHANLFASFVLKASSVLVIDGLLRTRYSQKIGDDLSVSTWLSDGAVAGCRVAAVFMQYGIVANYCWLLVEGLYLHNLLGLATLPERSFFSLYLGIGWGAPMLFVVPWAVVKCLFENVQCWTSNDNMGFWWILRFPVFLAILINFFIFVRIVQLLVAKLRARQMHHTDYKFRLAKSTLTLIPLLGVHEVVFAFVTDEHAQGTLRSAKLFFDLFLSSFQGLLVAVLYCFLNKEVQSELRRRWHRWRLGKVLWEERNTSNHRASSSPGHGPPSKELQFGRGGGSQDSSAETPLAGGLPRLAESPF

SMILES: O=C(Nc1nn[nH]n1)c1ccc(CN(C(=O)NCc2ccccc2-c2ccccc2)c2ccc(C3=CCCCC3)cc2)cc1 [Example 353, 4-[3-Biphenyl-2-ylmethyl-1-(4-cyclohex-1-enylphenyl)ureidomethyl]-N-(2H-tetrazol-5-yl)benzamide]
- pIC50: 7.66

SMILES: O=C(Nc1nn[nH]n1)c1ccc(CN(C(=O)NCc2ccccc2-c2ccccc2)c2ccc(C3CCCCC3)cc2)cc1 [Example 354, 4-[3-Biphenyl-2-ylmethyl-1-(4-cyclohexylphenyl)ureidomethyl]-N-(2H-tetrazol-5-yl)benzamide]
- pIC50: 7.96

SMILES: C[C@@H](NC(=O)N(Cc1ccc(C(=O)Nc2nn[nH]n2)cc1)c1ccc(C2=CCCCC2)cc1)c1ccc(Br)cc1 [Example 355, (R)-4-[3-[1-(4-Bromophenyl)ethyl]-1-(cyclohex-1-enylphenyl)ureidomethyl]-N-(2H-tetrazol-5-yl)benzamide]
- pIC50: 6.95

SMILES: O=C(Nc1nn[nH]n1)c1ccc(CN(C(=O)Nc2cccc(Br)c2)c2ccc(C3CCCCC3)cc2)cc1 [Example 356, 4-[3-(3-Bromophenyl)-1-(4-cyclohexylphenyl)ureidomethyl]-N-(2H-tetrazol-5-yl)benzamide]
- pIC50: 7.80

SMILES: CC(C)(C)c1cccc(NC(=O)N(Cc2ccc(C(=O)Nc3nn[nH]n3)cc2)c2ccc(C3CCCCC3)cc2)c1 [Example 357, 4-[1-(4-Cyclohexylphenyl)-3-(3-tert-butylphenyl)ureidomethyl]-N-(2H-tetrazol-5-yl)benzamide]
- pIC50: 7.77

SMILES: O=C(Nc1nn[nH]n1)c1ccc(CN(C(=O)Nc2ccc3c(c2)C(F)(F)OC(F)(F)O3)c2ccc(C3=CCCCC3)cc2)cc1 [Example 358, 4-[1-(4-Cyclohex-1-enylphenyl)-3-(2,2,4,4-tetrafluoro-4H-benzo[1,3]dioxin-6-yl)ureidomethyl]-N-(2H-tetrazol-5-yl)benzamide]
- pIC50: 7.72

SMILES: N#Cc1cc(NC(=O)N(Cc2ccc(C(=O)Nc3nn[nH]n3)cc2)c2ccc(C3CCCCC3)cc2)cc(C(F)(F)F)c1 [Example 359, 4-[3-(3-Cyano-5-trifluoromethylphenyl)-1-(4-cyclohexylphenyl)ureidomethyl]-N-(2H-tetrazol-5-yl)benzamide]
- pIC50: 7.80

SMILES: O=C(Nc1nn[nH]n1)c1ccc(CN(C(=O)Nc2ccc(OC(F)(F)F)c(-c3nc4ccccc4o3)c2)c2ccc(C3CCCCC3)cc2)cc1 [Example 360, 4-[3-(3-Benzoxazol-2-yl-4-trifluoromethoxyphenyl)-1-(4-cyclohexylphenyl)ureidomethyl]-N-(2H-tetrazol-5-yl)benzamide]
- pIC50: 8.10

SMILES: O=C(Nc1nn[nH]n1)c1ccc(CN(C(=O)Nc2cc(C(F)(F)F)ccc2C(F)(F)F)c2ccc(C3=CCCCC3)cc2)cc1 [Example 361, 4-[3-(2,5-Bis(trifluoromethyl)phenyl)-1-(4-cyclohex-1-enylphenyl)ureidomethyl]-N-(2H-tetrazol-5-yl)benzamide]
- pIC50: 6.92

SMILES: Cc1cc(NC(=O)N(Cc2ccc(C(=O)Nc3nn[nH]n3)cc2)c2ccc(C3=CCCCC3)cc2)cc(C(F)(F)F)c1 [Example 362, 4-[1-(4-Cyclohex-1-enylphenyl)-3-(3-methyl-5-trifluoromethylphenyl)ureidomethyl]-N-(2H-tetrazol-5-yl)benzamide]
- pIC50: 7.89

SMILES: Cc1cc(NC(=O)N(Cc2ccc(C(=O)Nc3nn[nH]n3)cc2)C2CCC(C(C)(C)C)CC2)cc(C(F)(F)F)c1 (stereo not shown) [Example 363, 4-[1-(4-tert-Butylcyclohexyl)-3-(3-methyl-5-trifluoromethylphenyl)ureidomethyl]-N-(2H-tetrazol-5-yl)benzamide]
- pIC50: 7.64

SMILES: O=C(O)c1ccc2nc(NC(=O)N(Cc3ccc(C(=O)Nc4nn[nH]n4)cc3)c3ccc(C4CCCCC4)cc3)sc2c1 [Example 364, 2-{3-(4-Cyclohexylphenyl)-3-[4-(2H-tetrazol-5-ylcarbamoyl)benzyl]ureido}benzothiazole-6-carboxylic acid]
- pIC50: 5.57

SMILES: COc1ccc2nc(NC(=O)N(Cc3ccc(C(=O)Nc4nn[nH]n4)cc3)c3ccc(C4CCCCC4)cc3)sc2c1 [Example 365, 4-[1-(4-Cyclohexylphenyl)-3-(6-methoxybenzothiazol-2-yl)ureidomethyl]-N-(2H-tetrazol-5-yl)benzamide]
- pIC50: 5.85

SMILES: O=C(Nc1nn[nH]n1)c1ccc(CN(C(=O)Nc2ccc3c(c2)C(F)(F)OC(F)(F)O3)c2ccc(C3CCCCC3)cc2)cc1 [Example 366, 4-[1-(4-Cyclohexylphenyl)-3-(2,2,4,4-tetrafluoro-4H-benzo[1,3]dioxin-6-yl)ureidomethyl]-N-(2H-tetrazol-5-yl)benzamide]
- pIC50: 7.92

SMILES: CCCCOc1ccc(NC(=O)N(Cc2ccc(C(=O)Nc3nn[nH]n3)cc2)c2ccc(C(C)(C)C)cc2)cc1S(C)(=O)=O [Example 367, 4-[3-(4-Butoxy-3-methylsulfonylphenyl)-1-(4-tert-butylphenyl)ureidomethyl]-N-(2H-tetrazol-5-yl)benzamide]
- pIC50: 7.47

SMILES: CCCCOc1ccc(NC(=O)N(Cc2ccc(C(=O)Nc3nn[nH]n3)cc2)c2ccc(C3CCCCC3)cc2)cc1S(C)(=O)=O [Example 368, 4-[3-(4-Butoxy-3-methylsulfonylphenyl)-1-(4-cyclohexylphenyl)ureidomethyl]-N-(2H-tetrazol-5-yl)benzamide]
- pIC50: 7.43

SMILES: CS(=O)(=O)Cc1cccc(NC(=O)N(Cc2ccc(C(=O)Nc3nn[nH]n3)cc2)c2ccc(C3CCCCC3)cc2)c1 [Example 369, 4-[1-(4-Cyclohexylphenyl)-3-(3-methylsulfonylmethylphenyl)ureidomethyl]-N-(2H-tetrazol-5-yl)benzamide]
- pIC50: 6.25

SMILES: Cn1nnc(-c2cccc(NC(=O)N(Cc3ccc(C(=O)Nc4nn[nH]n4)cc3)c3ccc(C(C)(C)C)cc3)c2)n1 [Example 370, 4-{1-(4-tert-Butylphenyl)-3-[3-(2-methyl-2H-tetrazol-5-yl)phenyl]ureidomethyl}-N-(2H-5-yl)benzamide]
- pIC50: 7.06

SMILES: Cn1nnc(-c2cccc(NC(=O)N(Cc3ccc(C(=O)Nc4nn[nH]n4)cc3)c3ccc(C4CCCCC4)cc3)c2)n1 [Example 371]
- pIC50: 7.28

SMILES: CCCCc1ccc(N(Cc2ccc(C(=O)NCCC(=O)O)cc2)C(=O)Nc2ccc(OC(F)(F)F)cc2)cc1 [Example 372, 3-{4-[1-(4-Butylphenyl)-3-(4-trifluoromethoxyphenyl)ureidomethyl]benzoylamino}propionic acid]
- pIC50: 7.05

SMILES: CC(C)(C)c1ccc(N(Cc2ccc(C(=O)NCCC(=O)O)cc2)C(=O)Nc2ccc(OC(F)(F)F)cc2)cc1 [Example 373, 3-{4-[1-(4-tert-Butylphenyl)-3-(4-trifluoromethoxyphenyl)ureidomethyl]benzoylamino}propionic acid]
- pIC50: 7.02

SMILES: CC(C)(C)c1ccc(N(Cc2ccc(C(=O)Nc3nn[nH]n3)cc2)C(=O)Nc2ccc(OC(F)(F)F)cc2)cc1 [Example 374, 4-[1-(4-tert-Butylphenyl)-3-(4-trifluoromethoxyphenyl)ureidomethyl]-N-(2H-tetrazol-5-yl)benzamide]
- pIC50: 8.00

SMILES: CC(C)(C)[C@H]1CC[C@H](N(Cc2ccc(C(=O)Nc3nn[nH]n3)cc2)C(=O)Nc2cc(C(F)(F)F)cc(C(F)(F)F)c2)CC1 [Example 375, 4-[3-(3,5-Bis(trifluoromethyl)phenyl)-1-(trans-4-tert-butylcyclohexyl)ureidomethyl]-N-(2H-tetrazol-5-yl)benzamide]
- pIC50: 7.54

SMILES: CC(C)(C)[C@H]1CC[C@H](N(Cc2ccc(C(=O)NCCC(=O)NO)cc2)C(=O)Nc2ccc(OC(F)(F)F)cc2)CC1 [Example 376, 4-[1-(trans-4-tert-Butylcyclohexyl)-3-(4-trifluoromethoxyphenyl)ureidomethyl]-N-(2-hydroxycarbamoylethyl)benzamide]
- pIC50: 6.41

SMILES: CC(C)(C)[C@H]1CC[C@H](N(Cc2ccc(C(=O)NCC(=O)NO)cc2)C(=O)Nc2ccc(OC(F)(F)F)cc2)CC1 [Example 377, 4-[1-(trans-4-tert-Butylcyclohexyl)-3-(4-trifluoromethoxyphenyl)ureidomethyl]-N-hydroxycarbamomethyl-benzamide]
- IC50 (Glu Bd Assay (III) IC50 (nM)): 2960 nM

SMILES: CCCCN1C(=O)c2ccc(NC(=O)N(Cc3ccc(C(=O)Nc4nn[nH]n4)cc3)c3ccc(C(C)(C)C)cc3)cc2C1=O [Example 378, 4-[3-(2-Butyl-1,3-dioxo-2,3-dihydro-1H-isoindol-5-yl)-1-(4-tert-butylphenyl)ureidomethyl]-N-(2H-tetrazol-5-yl)benzamide]
- pIC50: 7.64

SMILES: COc1cccc2cc(C(C)NC(=O)N(Cc3ccc(C(=O)Nc4nn[nH]n4)cc3)c3ccc(C4CCCCC4)cc3)ccc12 (stereo not shown) [Example 379, 4-{1-(4-Cyclohexylphenyl)-3-[1-(5-methoxynaphthalen-2-yl)ethyl]ureidomethyl}-N-(2H-tetrazol-5-yl)benzamide]
- pIC50: 7.18

SMILES: CC(C)(C)[C@H]1CC[C@H](N(Cc2ccc(C(=O)Nc3nn[nH]n3)cc2)NC(=O)c2ccc(OC(F)(F)F)cc2)CC1 [Example 380, 4-[N-(trans-4-tert-Butylcyclohexyl)-N′-(4-trifluoromethoxybenzoyl)hydrazinomethyl]-N-(2H-tetrazol-5-yl)benzamide]
- pIC50: 7.15

SMILES: O=C(O)CCNC(=O)c1ccc(CN(C(=O)Nc2ccc(OC(F)(F)F)cc2)C2CCN(C(=O)C3CC3)CC2)cc1 [Example 381, 3-{4-[1-(1-Cyclopropanecarbonylpiperidin-4-yl)-3-(4-trifluoromethoxyphenyl)ureidomethyl]benzoylamino}propionic acid]
- pIC50: 5.70

SMILES: CCN(CC)C(=O)C1CCC(N(Cc2ccc(C(=O)NCCC(=O)O)cc2)C(=O)Nc2ccc(OC(F)(F)F)cc2)CC1 (stereo not shown) [Example 382, 3-{4-[1-(4-Diethylcarbamoylcyclohexyl)-3-(4-trifluoromethoxyphenyl)ureidomethyl]benzoylamino}propionic acid]
- pIC50: 6.11

SMILES: O=C(O)CCNC(=O)c1ccc(CN(C(=O)Nc2ccc(OC(F)(F)F)cc2)C(=O)Nc2ccc(OC(F)(F)F)cc2)cc1 [Example 383, 3-{4-[1,5-Bis(4-trifluoromethoxyphenyl)-3-biuretmethyl]benzoylamino}propionic acid]
- pIC50: 6.03
